This is an account of results in PubChem BioAssay AID1996.

Converted amounts (≈) assume the structure as drawn. A value given as a limit tells only on which side of the number the result lay.

For the data set the following is noted: buffer; pH 7.4; 200.0 µM.
For `CC(=O)N1c2ccc(C)cc2C(c2ccccc2)CC1C` (stereo unspecified), the kinetic solubility was found to be 40.6 µg/mL (≈ 145 µM). `Cc1ccc(NCc2ccc(O)c3ncccc23)cc1C` returned a solubility (kinetic) of 3.6 µg/mL (≈ 12.9 µM).

`NC(=O)COC(=O)c1ccc(-c2ccc(O)cc2)cc1` registered a kinetic solubility of 1.1 µg/mL (≈ 4.05 µM).

Take `CCc1ccc(NC(=O)Cn2cc([N+](=O)[O-])nc2C)cc1`: the solubility (kinetic) turned out to be 6.7 µg/mL (≈ 23.2 µM). In the case of `COc1cc2[nH]c(=S)nc(NCc3ccc(C)cc3)c2cc1OC` it was 3.8 µg/mL (≈ 11.1 µM). With `COc1ccc(OC)c(NC(=O)Nc2ccc3c(c2)CCC3)c1`, the solubility (kinetic) turned out to be 1.3 µg/mL (≈ 4.16 µM). In the case of `CN(Cc1ccccc1)S(=O)(=O)c1cccc2nsnc12` it was 3 µg/mL (≈ 9.39 µM). In the case of `O=C(CCC(=O)OCC(=O)c1cccc([N+](=O)[O-])c1)NC1CCCCC1` it was over 54.4 µg/mL. In the case of `Cl.O=C(c1cccc(S(=O)(=O)N2CCc3ccccc32)c1)N1CCN(CCO)CC1` it was over 67.8 µg/mL; in that of `COc1cccc(NC(=O)C(c2ccccc2)N2CCNC(=O)C2)c1` (stereo unspecified), over 50.9 µg/mL; in that of `COC(=O)c1ccc2nc(-c3cccc(N)c3)cn2c1`, 33.5 µg/mL (≈ 125 µM). Molecule `CC(=O)Nc1ccc(S(=O)(=O)Nc2ccn(Cc3ccccc3Cl)n2)cc1` returned a kinetic solubility of over 60.7 µg/mL. Take `Cc1ccc(NC(=O)COC(=O)C2CC(=O)N(Cc3ccccc3)C2)cc1F` (stereo unspecified): the solubility (kinetic) stood at 46.8 µg/mL (≈ 122 µM). In the case of `Cc1cc(OC(=O)c2ccccc2F)c([N+](=O)[O-])c(=O)[nH]1` it was over 43.8 µg/mL; in that of `NC(=O)C1CCN(C(=O)CC2(CC(=O)O)CCCC2)CC1`, over 44.5 µg/mL. In the case of `CC(=O)NS(=O)(=O)c1ccc(NC(=O)c2ccc3c(c2)NC(=O)CS3)cc1` it was over 60.8 µg/mL; in that of `Cc1cc(C)cc(OCC(=O)NC(C)c2ccccc2)c1` (stereo unspecified), 28.8 µg/mL (≈ 102 µM). The figure for `CCC1CN(C(=O)NCc2ccc(F)cc2)c2ccccc2O1` (stereo unspecified) is 37.4 µg/mL (≈ 119 µM). Regarding `O=C(O)c1ccccc1C(=O)NCCc1ccc(Cl)cc1`, the solubility (kinetic) came out at 43.3 µg/mL (≈ 143 µM). The figure for `Cc1ccc(C(=O)NC(C)c2ccc(-n3ccnc3)cc2)c(C)c1` (stereo unspecified) is 46 µg/mL (≈ 144 µM).

The molecule `Cc1ccccc1CC(=O)N1CCN(C(=O)c2ccco2)CC1` came in with a kinetic solubility of over 46.9 µg/mL.

In turn, `COc1cc(OC)c(C(=O)OCC(=O)NC23CC4CC(CC(C4)C2)C3)cc1OC` registered a solubility (kinetic) of 3.9 µg/mL (≈ 9.67 µM). The figure for `CC(=O)c1ccc(NC(=O)Cc2cccs2)cc1` is 37.2 µg/mL (≈ 143 µM); for `O=c1[nH]c2ccc(NC(=S)NCc3ccccc3)cc2[nH]1` it is 7.6 µg/mL (≈ 25.5 µM). Consider `COc1ccc(NC(C)=O)cc1NC(=O)c1ccc2ccccc2c1`, for which the solubility (kinetic) came to 13 µg/mL (≈ 38.9 µM). The figure for `CC(NC(=O)c1ccco1)c1ccc(-n2ccnc2)cc1` (stereo unspecified) is over 42.2 µg/mL. In the case of `Cc1ccc(NC(=O)c2cccc(N3C(=O)C4C5C=CC(C5)C4C3=O)c2)cc1C` (stereo unspecified) it was 1.5 µg/mL (≈ 3.88 µM); in that of `O=C(CN1C(=O)NC2(CCCC2)C1=O)NCC1CCCO1` (stereo unspecified), 38.5 µg/mL (≈ 130 µM); in that of `COC(=O)COc1c(/C=C\c2nc(O)c([N+](=O)[O-])c(=O)[nH]2)cccc1OC`, over 56.6 µg/mL. `Cc1cc(NC(=O)Nc2ccc(Cl)c(Cl)c2)no1` registered a kinetic solubility of under 0.2 µg/mL. In the case of `O=C(Nc1ccccc1)Nc1ccno1` it was over 30.5 µg/mL. In the case of `CC1CN(c2ccc([N+](=O)[O-])nc2)CC(C)O1` (stereo unspecified), the kinetic solubility was over 35.6 µg/mL.

For `NS(=O)(=O)c1ccc(CCNC(=O)CN2C(=O)NC(c3ccccc3)(c3ccccc3)C2=O)cc1`, the kinetic solubility was over 73.9 µg/mL. Consider `CN(C(=O)Cn1nc(C(=O)O)c2ccccc2c1=O)C1CCCCC1`, for which the solubility (kinetic) was over 51.5 µg/mL.

With `CCOc1ccc(N2C(=O)CC(NCC3CCCO3)C2=O)cc1` (stereo unspecified), the kinetic solubility was over 47.8 µg/mL. In the case of `CCN(CC)c1ccc(/C=C2\SC(=O)N(C(C)C)C2=O)o1`, the solubility (kinetic) came to 4.1 µg/mL (≈ 13.3 µM).

In turn, `CN=C1C([N+](=O)[O-])=CC=C2C1=NC1(CCCCC1)N2O` came in with a kinetic solubility of 10.8 µg/mL (≈ 39.1 µM). `COCCNc1ccc(N2C(=O)C3CCCCC3C2=O)cc1[N+](=O)[O-]` (stereo unspecified) registered a solubility (kinetic) of 50.8 µg/mL (≈ 146 µM). `CN1CCN/C1=C(/C(Cl)=C(Cl)Cl)[N+](=O)[O-]` showed a solubility (kinetic) of over 40.9 µg/mL. The figure for `CC(C)=CC(=O)OCC(=O)NC1CCCc2ccccc21` (stereo unspecified) is 25 µg/mL (≈ 87 µM); for `O=C(Cc1ccsc1)NCC(=O)Nc1ccc(F)c(F)c1` it is over 46.5 µg/mL; for `CCOc1ccccc1NC(=O)COC(=O)CN1C(=O)NC(C)(C)C1=O` it is over 54.5 µg/mL. In the case of `COc1ccccc1N1CC(C(=O)Nc2ccc(C)c(S(=O)(=O)N3CCOCC3)c2)CC1=O` (stereo unspecified) it was over 71 µg/mL; in that of `Cc1csc(Nc2ccccc2)[n+]1C.[Br-]`, 30.2 µg/mL; in that of `Cc1ccc(NC(=O)NCCCN2CCCC2=O)cc1C`, over 43.4 µg/mL. The figure for `CC(=O)N(Cc1ccc(Cl)cc1)c1cnccn1` is over 39.3 µg/mL; for `Cc1ccc(CN2C(=O)C(C)Oc3ccccc32)cc1` (stereo unspecified) it is 4.7 µg/mL (≈ 17.6 µM); for `COc1ccc(NC(=O)c2ccc3nc[nH]c3c2)cc1` it is over 40.1 µg/mL. `CCCCC(C(=O)O)C(C)CC(=O)Nc1nccs1` (stereo unspecified) displayed a solubility (kinetic) of over 42.7 µg/mL. The figure for `Cc1cccc(NC(=O)[C@@H]2CCCN2C(=O)OC(C)(C)C)c1C` is 39.6 µg/mL (≈ 124 µM); for `Cc1ccc(NC(=O)CCS(=O)(=O)c2cccc3nonc23)cc1` it is 18.1 µg/mL (≈ 52.4 µM).

What is called solubility (kinetic) is the concentration staying in solution when a stock, usually in DMSO, is diluted into the medium.
